pKi: −log10 of the molar value. Entries after “also recorded” stand apart in the source; their conditions may differ. Where a name gives a salt, the structure may show the parent alone. Read-outs that look alike come from different tables or passages of the source.
What was measured:
[1] = biological target: T1, 5-HT2A receptor F340^6.52L mutant (Rattus norvegicus, UniProt P14842, F340L); settings: F340L vs wild type 5-HT2A, fold decrease; ref [41]; cited from earlier work
[2] = system: 5-HT2A S159^3.36A mutant; settings: ref [45]; cited from earlier work
[3] = system: 5-HT2A F125^2.55L mutant; settings: cited from earlier work
[4] = system: 5-HT2A F125^2.55S mutant; settings: ref [107]; cited from earlier work
[5] = system: 5-HT2A W367^7.40L mutant; settings: ref [44]; cited from earlier work
[6] = system: 5-HT2A W200^4.50A mutant; settings: ref [44]; cited from earlier work
[7] = system: 5-HT2A F340^6.52L mutant; settings: cited from earlier work
[8] = system: 5-HT2A D172^3.49N mutant; settings: ref [105]; cited from earlier work
[9] = system: 5-HT2A M132^2.62L mutant; settings: ref [107]; cited from earlier work
[10] = system: 5-HT2A T134^2.64A mutant; settings: ref [107]; cited from earlier work
[11] = system: 5-HT2A S159^3.36C mutant; settings: ref [45]; cited from earlier work
[12] = biological target: T1, 5-HT2A receptor F340^6.52L mutant; experiment: [3H]ketanserin binding at F340L mutant 5-HT2A receptor; settings: F340L vs wild type 5-HT2A
[13] = biological target: NET (Homo sapiens, UniProt P23975); experiment: [3H]nisoxitine binding, NET
[14] = biological target: 5-HT2A sites; settings: read-out: Ki, 5-HT2A receptor affinity; [3H]Ketanserin-labeled 5-HT2A sites; ref [13]; cited from earlier work

T1 sequence (P14842 whole entry F340L): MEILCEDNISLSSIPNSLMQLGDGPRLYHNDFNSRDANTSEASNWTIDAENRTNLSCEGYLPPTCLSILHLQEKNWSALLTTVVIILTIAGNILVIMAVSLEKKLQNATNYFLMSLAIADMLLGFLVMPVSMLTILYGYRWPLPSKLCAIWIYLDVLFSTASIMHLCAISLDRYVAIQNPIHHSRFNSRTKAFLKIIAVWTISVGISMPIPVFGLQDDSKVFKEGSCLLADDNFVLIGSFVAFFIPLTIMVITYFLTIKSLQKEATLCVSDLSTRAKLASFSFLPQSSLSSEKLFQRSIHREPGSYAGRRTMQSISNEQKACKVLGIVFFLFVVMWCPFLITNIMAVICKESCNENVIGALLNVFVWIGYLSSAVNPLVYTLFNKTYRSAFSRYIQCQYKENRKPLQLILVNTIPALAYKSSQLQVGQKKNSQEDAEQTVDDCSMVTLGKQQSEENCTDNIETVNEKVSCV
Sequence of NET (P23975 whole entry): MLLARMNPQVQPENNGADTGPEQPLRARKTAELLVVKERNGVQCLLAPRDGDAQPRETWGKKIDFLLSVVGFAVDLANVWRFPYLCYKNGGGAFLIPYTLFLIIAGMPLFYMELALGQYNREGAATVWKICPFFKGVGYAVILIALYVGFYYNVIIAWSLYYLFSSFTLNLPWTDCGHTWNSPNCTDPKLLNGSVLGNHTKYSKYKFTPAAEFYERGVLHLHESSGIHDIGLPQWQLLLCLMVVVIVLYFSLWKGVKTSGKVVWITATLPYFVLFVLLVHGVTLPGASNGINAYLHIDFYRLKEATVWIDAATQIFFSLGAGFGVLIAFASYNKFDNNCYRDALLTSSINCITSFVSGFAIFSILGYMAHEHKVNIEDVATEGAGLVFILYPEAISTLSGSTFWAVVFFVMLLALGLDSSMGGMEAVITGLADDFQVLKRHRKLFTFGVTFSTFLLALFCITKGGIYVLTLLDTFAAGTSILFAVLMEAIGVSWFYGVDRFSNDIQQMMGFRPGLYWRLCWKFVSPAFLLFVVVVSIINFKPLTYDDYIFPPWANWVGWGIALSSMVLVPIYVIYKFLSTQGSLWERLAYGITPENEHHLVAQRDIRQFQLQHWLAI

For `COc1cc(CC(C)N)c(OC)cc1I` (stereo not shown) [DOI, 2,5-dimethoxy-4-iodoamphetamine], the “effect of F340L mutation on affinity” value [1] is listed as “approximately 14,000 fold”.

In the case of `O=C(c1ccc(F)cc1)C1CCN(CCn2c(=O)[nH]c3ccccc3c2=O)CC1` [ketanserin], the “Effect on ketanserin binding affinity” value [2] is given as “no effect”, the “Effect on ketanserin binding affinity” value ([3]; ref [44]) is given as “no effect” and the “Effect on ketanserin binding affinity” value ([3]; ref [104]) is given as “no effect”. For the same molecule, the “Effect on ketanserin binding affinity” value ([3]; ref [106]) was “no effect”, the “Effect on ketanserin binding affinity” value [4] was “no effect” and the “Effect on ketanserin binding affinity” value [5] was “abolished; also recorded: no detectable binding”. For the same molecule, the “Effect on ketanserin binding affinity” value [6] was “no effect”, the “Effect on ketanserin binding affinity” value ([7]; ref [104]) was “no effect” and the “Effect on ketanserin binding affinity” value ([7]; ref [107]) was “no effect”. The “Effect on ketanserin binding affinity” value [8] was “no effect”, the “Effect on ketanserin binding affinity” value [9] was “no effect” and the “Effect on ketanserin binding affinity” value [10] was “no effect”. The “Effect on ketanserin binding affinity” value [11] was “no effect” and the “effect of F340L mutation on affinity” value [1] was “little effect”.

For `NCC1c2ccccc2Cc2ccccc21` [Compound 1a, 9-aminomethyl-9,10-dihydroanthracene], the “decrease in affinity at F340L mutant compared to wild type receptor” value [12] was 3 fold.

With `CCCCCCc1ccc2c(c1)Cc1ccccc1C2CN` (stereo not shown) [Compound 1d, 3-n-Hexyl-9-aminomethyl-9,10-dihydroanthracene fumarate] the “selectivity for the 5-HT2A receptor over the norepinephrine transporter” value [13] was 120 fold.

In the case of `NCC1c2ccccc2Cc2cc(Br)ccc21` (stereo not shown) [Compound 1b, 3-Bromo-9-aminomethyl-9,10-dihydroanthracene hydrochloride], the “decrease in affinity at F340L mutant compared to wild type receptor” value [12] was “no change in affinity”.

For `COc1cc(CC(C)N)c(OC)cc1O` (stereo not shown) [Compound 2g], the pKi [14] is listed as under 4.30.

— publication PMC3088499 (Journal of medicinal chemistry, 2008)
